Target: T1, Proteasome subunit beta type-5 (Homo sapiens, UniProt P28074)
T1 sequence (P28074 whole entry): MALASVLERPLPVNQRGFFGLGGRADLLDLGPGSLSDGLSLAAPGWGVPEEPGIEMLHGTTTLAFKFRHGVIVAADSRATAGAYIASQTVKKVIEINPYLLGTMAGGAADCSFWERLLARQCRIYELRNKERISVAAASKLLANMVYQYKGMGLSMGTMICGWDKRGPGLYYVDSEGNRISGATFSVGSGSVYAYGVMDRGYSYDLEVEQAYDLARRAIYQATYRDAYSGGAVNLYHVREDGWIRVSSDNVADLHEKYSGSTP
Experiment: Proteasome Inhibitory Activity
Source text: The proteasome used in the present invention is human erythrocyte 20S proteasome, and the enzyme, fluorescent substrate and test buffer are all purchased from Enzo.

IC50	Compound
4.86 nM	CSC[C@H](NC(=O)c1cc(Cl)ccc1Cl)C(=O)N[C@@H](CC(C)C)B(O)O [US11542283, Compound IV-9]
7.47 nM	CC(C)C[C@H](NC(=O)CNC(=O)c1cc(Cl)ccc1Cl)B1OC(=O)CC(CC(=O)O)(C(=O)O)O1 (some centres not stated) [US11542283, Compound MLN-9708]

From BindingDB's records for patent US11542283 (Jiangsu Chia Tai Fenghai Pharmaceutical, 2023)
